Experimental data published in US8084593B2, “Polynucleotide encoding a TRIM-Cyp polypeptide, compositions thereof, and methods of using same” (The Trustees of Columbia University in the City of New York, priority 2004, dated 2011).
“Also recorded” adds a separate entry of the source.

Assays:
[1] = system: N-MLV; assay: N-MLV / B-MLV GFP vector infection of transduced TE671 cells, FACS; format: cell-based, murine leukemia virus; details: for N-MLV replication defect (N-tropic restriction by endogenous TRIM5αhu) in cells expressing the construct: TE671 cells, control cells: B-MLV ˜200-fold more infectious than N-MLV
Method: (§1) FIGS. 7a-7c. […] (a) TE671 cells expressing the indicated LPCX derived constructs were infected with GFP-expressing B-MLV and N-MLV vectors at multiple doses. Cells were infected in the presence or absence of As2O3 (3 μM). Two days later, the percentage of infected cells was determined by FACS. (b) OMK cells were transduced with MIG (Vect) or with MIG-TRIM5αhu (T5hu) and challenged with DsRed-expressing N-MLV or B-MLV vectors. Two days later, the percentage of infected cells was determined by FACS.
FIGS. 8a-8c. Effect of TRIMStop on TRIM5αhu antiviral activity. (a) TE671-Vector (Vector) cells and TE671-TRIMStop cells were infected with HIV-1NL-GFP (left panel) or with N- and B-MLV (right panel). Two days later, the percentage of infected (GFP expressing) cells was determined by FACS. (b) Total RNA was prepared from TE671-Vector (Vect), TE671-TRIMCyp (TC), and TE671-TRIMStop (TS), and RT-PCR was used to detect endogenous TRIM5α or TRIMCyp/TRIMStop. RT was performed in the presence (+) or absence (−) of reverse transcriptase. (c) 293T cells were transfected with LPCX (Vect), LPCX-TRIMCyp (TC), or LPCX-TRIMStop (TS), and Western blotting was performed using an antibody specific to TRIM5.
Next, we analyzed MLV replication in TE671-TRIM5αrh, TE671-TRIMCyp, and the control TE671-vector cells.

[2] = system: HIV-1; format: cell-based, human immunodeficiency virus type 1
Method: (§2) HIV-DsRed and HIV-GFP vectors were produced in 293T cells by co-transfection of CSGW or CSRW with p8.9NΔSB (wild type or G89V mutant) and pMD.G, also at 5:5:1 ratio. HIV/Env-/GFP and SIV/Env-/GFP viruses were produced by cotransfection of the wild type or G89V HIV/Env-/GFP plasmids with pMD.G at a 10:1 ratio. All vectors and viruses were harvested 48 h post-transfection, filtered (0.45-μm filter, Pall Acrodisc), aliquoted, and stored at −80° C. Stocks were normalized by reverse transcriptase activity or p24 ELISA (8).
(§3) Infection assays—Cells were assayed by flow cytometry 48 to 72 h post-infection to determine the percentage of cells that were GFP-positive (FL-1) or DsRed-positive (FL-2). Cells transduced with pMIG vectors and infected with HIV-DsRed were gated to limit the analysis to GFP-positive cells.

[3] = system: CAp30 from N-MLV virions; assay: CA pull-out of N-MLV virions with GST-TRIM5 fusions; format: binding, murine leukemia virus; details: GST fusion produced in 293T cells, purified virions
[4] = system: HIV-1; assay: HIV-1-derived CSRW vector challenge of OMK/MIG and OMK/MIG-T5hu cells; format: cell-based, human immunodeficiency virus type 1; details: OMK cells expressing TRIM5αhu
Method: as §1
(§4) We also performed the reciprocal experiment, transducing owl monkey OMK cells with TRIM5αhu and challenging them with MLV or HIV-1.

[5] = system: B-MLV; assay: B-MLV DsRed vector challenge of OMK cells transduced with MIG-TRIM5αhu; format: cell-based, murine leukemia virus
Method: as §1, §4

[6] = system: CAp30 from B-MLV virions; assay: CA pull-out of B-MLV virions with GST-TRIM5 fusions; format: binding, murine leukemia virus; details: GST fusion produced in 293T cells, purified virions
[7] = system: N-MLV; assay: N-MLV DsRed vector challenge of OMK cells transduced with MIG-TRIM5αhu; format: cell-based, murine leukemia virus
Method: as §1, §4

[8] = system: HIV-1NL-GFP; format: cell-based, human immunodeficiency virus type 1; details: for HIV-1 cDNA synthesis (Southern blot) / HIV-1 infection (GFP-positive cells by FACS): TE671 cells; for HIV-1 cDNA synthesis (Southern blot): 16 h after infection; for HIV-1 infection (GFP-positive cells by FACS): LPCX vectors
Method: FIG. 6. […] LPCX-based retroviral vectors were used to transduce the indicated genes into human TE671 cells. Vect, Cyp, TS, TC and T5rh designate, respectively, Vector control, owl monkey CypA, TRIMStop, TRIMCyp, and TRIM5αrh. […] One twentieth of the cells were maintained in culture for another day and used to determine the percentage of GFP-positive cells by FACS (bottom of the figure). Total DNA was extracted from the remainder of the cells 16 h after infection, and 5 μg of each DNA sample was analyzed by Southern blotting. The positions of the linear, 1-LTR, and 2-LTR HIV-1 cDNA species are indicated on the left. “Total” DNA refers to a band specific to all HIV-1 cDNA forms, including the integrated DNA.
We transduced human rhabdomyosarcoma TE671 cells (45) with previously described LPCX vectors (reference 5, see also Example 1) bearing cDNAs for TRIM5αrh, TRIMCyp, or owl monkey CypA. Cells were also transduced with a vector expressing TRIMStop, a truncated version of TRIMCyp lacking the CypA domain (see Example 1). Pools of transduced cells were selected in puromycin and then assessed for susceptibility to infection with HIV-1NL-GFP (32). […] We monitored the percentage of infected (GFP-expressing) cells by fluorescence-activated cell sorting (FACS) and the synthesis of viral cDNA in the infected cells using a Southern blot designed to detect full-length, linear viral cDNA and circular viral cDNAs that form in the nucleus (31, 32, 47).

[9] = system: HIV-1
Method: (§5) FIGS. 3a-3e. […] WT, wild type. HeLa cells (d) or Rat2 cells (e) transduced with the indicated cDNAs were infected with HIV-1.
(§6) Generation of stable cell lines—To generate stable RNAi knockdown lines, 1 ml of pMH vector-containing media was pelleted onto OMK cells (1,200 g for 72 min) in 12-well plates. Infection was repeated 24 h later. ntTRIMCyp, TRIMStop and ntCypAOM cDNAs were transduced with either pMIG (OMK and HeLa cells) or pLPCX (TE671 and Rat2 cells). pLPCX-infected cells were selected in 1 μg ml^−1 puromycin.
as §3

[10] = system: HIV-1; details: OMKMH-CypA-147 cells, pMIG vector, HIV-1 DsRed vector
Method: as §6, §3

[11] = target: HIV-1 CA (Human immunodeficiency virus type 1 group M subtype B, UniProt P12493); details: detergent-prepared virion cores, affinity chromatography
Method: Retrovirion cores can be liberated from the viral membrane envelope by detergent (54). HIV-1 virion cores were prepared with several different detergents and mixed with recombinant TRIM5 orthologues.

[12] = system: TRIM5 orthologues (TRIMCyp, TRIM5αrh, TRIM5αhu, TRIMStop, huTRIMStop); assay: Yeast two-hybrid system, β-galactosidase activity: TRIM5 orthologues; format: binding; details: LexA / B42 fusions, S. cerevisiae EGY48
Text: (§7) FIGS. 9A-9B. TRIMCyp and TRIMStop both bind TRIM5αhu. (A) Yeast two-hybrid system. […] (B) Binding in mammalian cells. TRIM5αhu was fused to GST.

[13] = target: T1, TRIM5αhu (Homo sapiens, UniProt Q9C035); assay: GST pull down from cotransfected 293T cells, Western blotting; format: binding; details: glutathione-Sepharose beads, anti-TRIM5 Western blot
T1 construct: expressed in transfected cells; host or cells: 293T
Text: as §7
To investigate TRIM5:TRIMCyp heterodimerization in mammalian cells, we expressed TRIM5αhu in fusion with glutathione-S-transferase (GST) and transfected 293T cells with either GST or GST-TRIM5αhu. These cells were cotransfected with the LPCX plasmid constructs described above that express TRIMCyp or TRIMStop. […] The blot was also probed with an anti-cyclophilin A antibody, confirming the identity of TRIMCyp (FIG. 9b).

[14] = system: HIV-1; remark: listed apart in the source
Method: as §5, §2, §6, §3

[15] = system: SIVMAC239; assay: SIVMAC239 infection of TE671 cells transduced with cDNAs; format: cell-based, simian immunodeficiency virus; details: stable TE671 cell lines
Method: as §5, §2, §6, §3

[16] = target: HIV-1 Gag (Human immunodeficiency virus type 1 group M subtype B, UniProt P12493); details: LexA / B42 fusions, S. cerevisiae EGY48
Method: (A) Yeast two-hybrid system. […] Pairs of fused LexA and B42 expression plasmids were transformed into Saccharomyces cerevisiae strain EGY48. For each transformant, β-galactosidase activity for three colonies is reported in Miller units with the standard deviation. (B) Binding in mammalian cells.
Fusions of these proteins with LexA and/or B42 were constructed, and the interactions between fusion proteins were analyzed using a previously described system (37) in which reporter gene β-galactosidase activity was assessed with a quantitative assay (43).

[17] = system: HIV-1 clone NL4-3; assay: Spreading HIV-1 NL4-3 infection of transduced Jurkat T cells, supernatant reverse transcriptase activity; format: cell-based, human immunodeficiency virus type 1; details: Jurkat T cells transduced with owl monkey TRIMCyp cDNA
Text: FIG. 13. […] Retroviral vectors were used to transduce human Jurkat T cells with the cDNA encoding owl monkey TRIMCyp. Control cells were transduced with vector lacking the cDNA. Cells were challenged with full infectious HIV-1 clone NL4-3. Supernatant was collected and assessed for viral reverse transcriptase activity (a quantitative measure of the amount of virus produced in the culture).

T1 sequence (Q9C035 whole entry): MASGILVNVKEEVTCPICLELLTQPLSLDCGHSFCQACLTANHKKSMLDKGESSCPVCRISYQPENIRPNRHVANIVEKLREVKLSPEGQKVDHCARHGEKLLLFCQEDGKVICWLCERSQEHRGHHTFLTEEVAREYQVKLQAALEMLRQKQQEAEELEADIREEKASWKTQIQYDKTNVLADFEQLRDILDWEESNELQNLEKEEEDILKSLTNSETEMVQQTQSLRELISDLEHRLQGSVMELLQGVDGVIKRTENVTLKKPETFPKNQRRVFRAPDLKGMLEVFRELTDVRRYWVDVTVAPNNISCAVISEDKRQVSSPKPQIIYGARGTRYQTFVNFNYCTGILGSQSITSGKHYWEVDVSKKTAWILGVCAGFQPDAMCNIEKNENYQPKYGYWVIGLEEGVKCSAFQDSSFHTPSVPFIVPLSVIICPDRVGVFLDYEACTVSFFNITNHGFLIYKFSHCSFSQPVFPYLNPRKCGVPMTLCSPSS

O=[As]O[As]=O (centres unmarked) [As2O3]
enhancement of infectivity in cells expressing TRIM5αrh or TRIMCyp ([1]; TE671-TRIM5αrh and TE671-TRIMCyp, As2O3 3 μM): no longer enhanced infectivity | increase of N-MLV infectivity ([1]; control TE671 cells, As2O3 3 μM): ≥ 10 fold

C/C=C/C[C@@H](C)[C@@H](O)[C@H]1C(=O)N[C@@H](CC)C(=O)N(C)CC(=O)N(C)[C@@H]([C@@H](C)CC)C(=O)N[C@@H](C(C)C)C(=O)N(C)[C@@H](CC(C)C)C(=O)N[C@@H](C)C(=O)N[C@H](C)C(=O)N(C)[C@@H](CC(C)C)C(=O)N(C)[C@@H](CC(C)C)C(=O)N(C)[C@@H](C(C)C)C(=O)N1C [MeIle^4-CsA]
HIV-1 infection of OMK cells on drug treatment of target cells [2]: permits HIV-1 to infect OMK cells at an efficiency similar to that of SIV

TRIM5 lacking the SPRY domain: GST fusion with human TRIM5 lacking the SPRY domain
association of CAp30 from N-MLV virions [3]: did not associate

TRIM5αhu: human TRIM5α; in Example 3 produced as a GST-fusion protein in 293T cells
restriction of HIV-1 compared with control cells [4]: similar | effect on B-MLV [5]: no effect | association of CAp30 from B-MLV virions [6]: did not associate | restrictive effect on the replication of N-MLV [7]: approximately twofold | association of CAp30 from N-MLV virions [3]: associated

TRIM5αrh: alpha isoform of rhesus macaque TRIM5 [reference compound]
N-MLV replication defect (N-tropic restriction by endogenous TRIM5αhu) in cells expressing the construct [1]: about 20 fold | HIV-1 cDNA synthesis (Southern blot) [8]: inhibited HIV-1 cDNA synthesis | HIV-1 infection (GFP-positive cells by FACS) [8]: inhibited HIV-1 infection of TE671 cells

TRIMCyp: owl monkey TRIM5-CypA fusion protein, 54-kD, SEQ ID NO:4; ntTRIMCyp is its RNAi-resistant cDNA with silent mutations
HIV-1 restriction in transduced HeLa cells ([9]; pMIG vector): exhibited the same restriction | HIV-1 restriction in non-primate cells ([9]; rat fibroblasts (Rat2)): functional | N-MLV replication defect (N-tropic restriction by endogenous TRIM5αhu) in cells expressing the construct [1]: fully abrogated | HIV-1 restriction after transduction of RNAi-resistant cDNA [10]: restricted HIV-1 | association of HIV-1 CA with TRIM5 orthologue [11]: associated | efficiency of inhibition of HIV-1 replication relative to TRIM5αrh [8]: roughly fivefold more efficiently than TRIM5αrh | HIV-1 cDNA synthesis (Southern blot) [8]: inhibited HIV-1 cDNA synthesis | HIV-1 infection (GFP-positive cells by FACS) [8]: inhibited HIV-1 infection of TE671 cells | interaction with TRIM5 orthologues [12]: interacted equally well; also recorded: associates with human TRIM5-α | association with GST-TRIM5αhu [13]: associated with TRIM5αhu | HIV-1 infection / titre in cells expressing the cDNA [14]: highly resistant to HIV-1 infection | SIVMAC239 infection in cells expressing the cDNA [15]: unaffected | interaction with HIV-1 Gag [16]: interacted equally well | protection of human T cells from spreading HIV-1 infection [17]: protected from a spreading, cytopathic HIV-1 infection

sanglifehrin
HIV-1 infection of OMK cells on drug treatment of target cells [2]: permits HIV-1 to infect OMK cells at an efficiency similar to that of SIV

B1: TRIMStop: construct in which TRIMCyp has been truncated with a stop codon replacing the first codon of the CypA domain (protein)
chain: MASRILVNIKEEVTCPICLELLTEPLSLDCGHSFCQACITANHKKSMPHQGERSCPLCRISYSSENLRPNRHLVNIVERLREVMLSPEEGQKVDHCAHHGEKLVLFCQQDGNVICWLCERSQEHRGHQTFLVEEVAQKYREKLQVALEMMRQKQKDAEKLEADVREEQASWKIQIQNDKTNIMAEFKKRRDILDCEESKELQNLEKEEKNILKRLVQSENDMVLQTQSVRVLISDLEHRLQGSVMELLQGVDGVIKRIEKVTLQNPKTFLNEKRRIFQTPDLKGTLQVFKEPTEVQRYWDAAAWDLVASA
N-MLV replication defect (N-tropic restriction by endogenous TRIM5αhu) in cells expressing the construct [1]: did not affect the capacity of TE671 cells to restrict N-MLV replication | interaction with TRIM5 orthologues [12]: as competent as TRIMCyp | association with GST-TRIM5αhu [13]: associated with TRIM5αhu | HIV-1 infection / titre in cells expressing the cDNA [14]: no effect on HIV-1 titre | interaction with HIV-1 Gag [16]: not able to interact with Gag
